System: 898857-211-R-J1-PDC complex spheroids, growth % test/control
Assay: Anticancer human tumor 898857-211-R-J1-PDC patient-derived melanoma cell line growth inhibition [RAS]
Details: for IC50: curve of first compound; for viability, T/C: stronger effect = lower value; active means viability on the fitted dose curve at most 10% of control; inactive means the rest
Procedure, shortened: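 Tumour cells grown as complex spheroids with HUVEC endothelial cells and mesenchymal stem cells, treated with RAS pathway inhibitor combinations. Each agent spans half-log steps from near clinical Cmax, or 10 microM where Cmax is unknown.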

[1] = second compound 0.000949 µM, first compound 0.0316 µM
[2] = second compound 0.000949 µM, first compound 0.1 µM
[3] = second compound 0.000949 µM, first compound 0.316 µM
[4] = second compound 0.000949 µM, first compound 1 µM
[5] = second compound 0.000949 µM, first compound 3.16 µM
[6] = second compound 0.000949 µM, first compound 10 µM
[7] = second compound 0.003 µM, first compound 0.0316 µM
[8] = second compound 0.003 µM, first compound 0.1 µM
[9] = second compound 0.003 µM, first compound 0.316 µM
[10] = second compound 0.003 µM, first compound 1 µM
[11] = second compound 0.003 µM, first compound 3.16 µM
[12] = second compound 0.003 µM, first compound 10 µM
[13] = second compound 0.00949 µM, first compound 0.0316 µM
[14] = second compound 0.00949 µM, first compound 0.1 µM
[15] = second compound 0.00949 µM, first compound 0.316 µM
[16] = second compound 0.00949 µM, first compound 1 µM
[17] = second compound 0.00949 µM, first compound 3.16 µM
[18] = second compound 0.00949 µM, first compound 10 µM
[19] = second compound 0.03 µM, first compound 0.0316 µM
[20] = second compound 0.03 µM, first compound 0.1 µM
[21] = second compound 0.03 µM, first compound 0.316 µM
[22] = second compound 0.03 µM, first compound 1 µM
[23] = second compound 0.03 µM, first compound 3.16 µM
[24] = second compound 0.03 µM, first compound 10 µM
[25] = second compound 0.0949 µM, first compound 0.0316 µM
[26] = second compound 0.0949 µM, first compound 0.1 µM
[27] = second compound 0.0949 µM, first compound 0.316 µM
[28] = second compound 0.0949 µM, first compound 1 µM
[29] = second compound 0.0949 µM, first compound 3.16 µM
[30] = second compound 0.0949 µM, first compound 10 µM
[31] = second compound 0.3 µM, first compound 0.0316 µM
[32] = second compound 0.3 µM, first compound 0.1 µM
[33] = second compound 0.3 µM, first compound 0.316 µM
[34] = second compound 0.3 µM, first compound 1 µM
[35] = second compound 0.3 µM, first compound 3.16 µM
[36] = second compound 0.3 µM, first compound 10 µM
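Further: spheroids exposed to compound for seven days before readout.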
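Wherever viability, T/C is given: 100% = DMSO vehicle control wells.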

CC1(O)CCCC1n1c(=O)c(C(F)F)cc2cnc(NC3CCN(S(C)(=O)=O)CC3)nc21 (stereo not given) + CCn1c(-c2cc(N3CCN(C)CC3)cnc2C(C)OC)c2c3cc(ccc31)-c1csc(n1)CC(NC(=O)C1CC1C)C(=O)N1CCCC(N1)C(=O)OCC(C)(C)C2
138 nM: IC50 (second compound 0.00949 µM)
121 nM: IC50 (second compound 0.000949 µM)
144 nM: IC50 (second compound 0.3 µM)
168 nM: IC50 (second compound 0.003 µM)
188 nM: IC50 (second compound 0.0949 µM)
inactive: viability, T/C [1] 92.9% | viability, T/C [2] 49.7% | viability, T/C [3] 35.1% | viability, T/C [4] 38.6% | viability, T/C [5] 36.2% | viability, T/C [6] 15.2% | viability, T/C [7] 90.7% | viability, T/C [8] 58.5% | viability, T/C [9] 33.5% | viability, T/C [10] 39.4% | viability, T/C [11] 35.1% | viability, T/C [12] 17.2% | viability, T/C [13] 78.2% | viability, T/C [14] 51% | viability, T/C [15] 37.6% | viability, T/C [16] 34.7% | viability, T/C [17] 37.5% | viability, T/C [18] 15.4% | viability, T/C [19] 100% | viability, T/C [20] 49.5% | viability, T/C [21] 38.4% | viability, T/C [22] 36.5% | viability, T/C [23] 36.7% | viability, T/C [24] 16.6% | viability, T/C [25] 96% | viability, T/C [26] 53.6% | viability, T/C [27] 43.2% | viability, T/C [28] 38.7% | viability, T/C [29] 37.2% | viability, T/C [30] 16.9% | viability, T/C [31] 107% | viability, T/C [32] 55.4% | viability, T/C [33] 33.6% | viability, T/C [34] 36.3% | viability, T/C [35] 34.2% | viability, T/C [36] 16%
124 nM: IC50 (second compound 0.03 µM)

CCC(CC)c1cc(NC2CCC(N)C2)n2nccc2n1 (stereo not given) + CCn1c(-c2cc(N3CCN(C)CC3)cnc2C(C)OC)c2c3cc(ccc31)-c1csc(n1)CC(NC(=O)C1CC1C)C(=O)N1CCCC(N1)C(=O)OCC(C)(C)C2
inactive: viability, T/C [1] 113% | viability, T/C [2] 100% | viability, T/C [3] 87.1% | viability, T/C [4] 19.7% | viability, T/C [7] 95.1% | viability, T/C [8] 94% | viability, T/C [9] 82% | viability, T/C [10] 22.8% | viability, T/C [13] 92.2% | viability, T/C [14] 105% | viability, T/C [15] 84.4% | viability, T/C [16] 23.6% | viability, T/C [19] 102% | viability, T/C [20] 89.5% | viability, T/C [21] 80.9% | viability, T/C [22] 21.2% | viability, T/C [25] 109% | viability, T/C [26] 102% | viability, T/C [27] 86.3% | viability, T/C [28] 23.8% | viability, T/C [31] 104% | viability, T/C [32] 105% | viability, T/C [33] 84.8% | viability, T/C [34] 22.9%
609 nM: IC50 (second compound 0.00949 µM)
604 nM: IC50 (second compound 0.3 µM)
594 nM: IC50 (second compound 0.000949 µM)
589 nM: IC50 (second compound 0.003 µM)
active: viability, T/C [5] 0.45% | viability, T/C [6] 0.75% | viability, T/C [11] 0.27% | viability, T/C [12] 0.25% | viability, T/C [17] 0.8% | viability, T/C [18] 0.2% | viability, T/C [23] 0.38% | viability, T/C [24] 0.27% | viability, T/C [29] 0.81% | viability, T/C [30] 0.19% | viability, T/C [35] 0.32% | viability, T/C [36] 0.26%
615 nM: IC50 (second compound 0.0949 µM)
571 nM: IC50 (second compound 0.03 µM)

CCN1CCN(Cc2ccc(Nc3ncc(F)c(-c4cc(F)c5nc(C)n(C(C)C)c5c4)n3)nc2)CC1 + CCn1c(-c2cc(N3CCN(C)CC3)cnc2C(C)OC)c2c3cc(ccc31)-c1csc(n1)CC(NC(=O)C1CC1C)C(=O)N1CCCC(N1)C(=O)OCC(C)(C)C2
267 nM: IC50 (second compound 0.000949 µM)
inactive: viability, T/C (second compound 0.000949 µM, first compound 0.00316 µM) 108% | viability, T/C (second compound 0.000949 µM, first compound 0.01 µM) 94.2% | viability, T/C [1] 82.1% | viability, T/C [2] 57.4% | viability, T/C [3] 51.6% | viability, T/C [4] 36.9% | viability, T/C (second compound 0.003 µM, first compound 0.00316 µM) 105% | viability, T/C (second compound 0.003 µM, first compound 0.01 µM) 96% | viability, T/C [7] 85.8% | viability, T/C [8] 54.9% | viability, T/C [9] 47.7% | viability, T/C [10] 38.1% | viability, T/C (second compound 0.00949 µM, first compound 0.00316 µM) 96.8% | viability, T/C (second compound 0.00949 µM, first compound 0.01 µM) 97.4% | viability, T/C [13] 82.3% | viability, T/C [14] 79.8% | viability, T/C [15] 42.7% | viability, T/C [16] 36.4% | viability, T/C (second compound 0.03 µM, first compound 0.00316 µM) 96.9% | viability, T/C (second compound 0.03 µM, first compound 0.01 µM) 102% | viability, T/C [19] 75.4% | viability, T/C [20] 67.4% | viability, T/C [21] 46.3% | viability, T/C [22] 29.4% | viability, T/C (second compound 0.0949 µM, first compound 0.00316 µM) 107% | viability, T/C (second compound 0.0949 µM, first compound 0.01 µM) 113% | viability, T/C [25] 87.2% | viability, T/C [26] 64.3% | viability, T/C [27] 48.9% | viability, T/C [28] 39% | viability, T/C (second compound 0.3 µM, first compound 0.00316 µM) 117% | viability, T/C (second compound 0.3 µM, first compound 0.01 µM) 110% | viability, T/C [31] 76% | viability, T/C [32] 70.2% | viability, T/C [33] 48.5% | viability, T/C [34] 33.9%
252 nM: IC50 (second compound 0.0949 µM)
288 nM: IC50 (second compound 0.3 µM)
261 nM: IC50 (second compound 0.00949 µM)
248 nM: IC50 (second compound 0.03 µM)
191 nM: IC50 (second compound 0.003 µM)

Cc1nc(N2CCC3(CC2)COC(C)C3N)c(CO)nc1Sc1ccnc(N)c1Cl (stereo not given) + CCn1c(-c2cc(N3CCN(C)CC3)cnc2C(C)OC)c2c3cc(ccc31)-c1csc(n1)CC(NC(=O)C1CC1C)C(=O)N1CCCC(N1)C(=O)OCC(C)(C)C2
inactive: viability, T/C [1] 99.6% | viability, T/C [2] 98% | viability, T/C [3] 93.6% | viability, T/C [4] 94.2% | viability, T/C [5] 94.3% | viability, T/C [6] 86.1% | viability, T/C [7] 96.1% | viability, T/C [8] 92.2% | viability, T/C [9] 105% | viability, T/C [10] 96.4% | viability, T/C [11] 92.2% | viability, T/C [12] 85.5% | viability, T/C [13] 96% | viability, T/C [14] 110% | viability, T/C [15] 112% | viability, T/C [16] 103% | viability, T/C [17] 96.9% | viability, T/C [18] 77.7% | viability, T/C [19] 109% | viability, T/C [20] 107% | viability, T/C [21] 106% | viability, T/C [22] 97.6% | viability, T/C [23] 99.5% | viability, T/C [24] 74.8% | viability, T/C [25] 115% | viability, T/C [26] 116% | viability, T/C [27] 110% | viability, T/C [28] 107% | viability, T/C [29] 107% | viability, T/C [30] 84.7% | viability, T/C [31] 90.7% | viability, T/C [32] 105% | viability, T/C [33] 99.2% | viability, T/C [34] 111% | viability, T/C [35] 104% | viability, T/C [36] 76.9%
> 10000 nM: IC50 (second compound 0.000949 µM) | IC50 (second compound 0.003 µM) | IC50 (second compound 0.00949 µM) | IC50 (second compound 0.03 µM) | IC50 (second compound 0.0949 µM) | IC50 (second compound 0.3 µM)

NC1c2ccccc2OC12CCN(c1cnc3c(N4CCCc5ncccc54)n[nH]c3n1)CC2 (stereo not given) + CCn1c(-c2cc(N3CCN(C)CC3)cnc2C(C)OC)c2c3cc(ccc31)-c1csc(n1)CC(NC(=O)C1CC1C)C(=O)N1CCCC(N1)C(=O)OCC(C)(C)C2
8350 nM: IC50 (second compound 0.0949 µM)
8210 nM: IC50 (second compound 0.3 µM)
> 10000 nM: IC50 (second compound 0.000949 µM) | IC50 (second compound 0.003 µM) | IC50 (second compound 0.00949 µM) | IC50 (second compound 0.03 µM)
inactive: viability, T/C [1] 101% | viability, T/C [2] 87.5% | viability, T/C [3] 91.5% | viability, T/C [4] 81.9% | viability, T/C [5] 81.4% | viability, T/C [6] 51% | viability, T/C [7] 103% | viability, T/C [8] 87.9% | viability, T/C [9] 101% | viability, T/C [10] 85.7% | viability, T/C [11] 81.3% | viability, T/C [12] 55.5% | viability, T/C [13] 87.7% | viability, T/C [14] 97.7% | viability, T/C [15] 92.1% | viability, T/C [16] 102% | viability, T/C [17] 74.3% | viability, T/C [18] 56.7% | viability, T/C [19] 91.5% | viability, T/C [20] 87.8% | viability, T/C [21] 93.8% | viability, T/C [22] 73.5% | viability, T/C [23] 81.9% | viability, T/C [24] 50% | viability, T/C [25] 113% | viability, T/C [26] 99.8% | viability, T/C [27] 102% | viability, T/C [28] 88.5% | viability, T/C [29] 83.9% | viability, T/C [30] 43% | viability, T/C [31] 112% | viability, T/C [32] 92.6% | viability, T/C [33] 81.3% | viability, T/C [34] 98% | viability, T/C [35] 78.7% | viability, T/C [36] 43.5%

Reference: PubChem BioAssay AID2060882 (Molecular Pharmacology Branch, DTP, NCI, 2025)
